In patent publication US7049340B1, “Neuroprotective and retinoprotective ophthalmologic drugs” (priority 1999, dated 2006):
Read-outs that look alike come from different tables or passages of the source.

What was measured:
rabbit converting enzyme [1] = molecular target: T1, rabbit converting enzyme (Oryctolagus cuniculus, UniProt P12822); conditions: cited from earlier work
T1 construct: host or cells: rabbit lung (only from the title of the cited Shapiro thesis)
T1 sequence (P12822 34-1310): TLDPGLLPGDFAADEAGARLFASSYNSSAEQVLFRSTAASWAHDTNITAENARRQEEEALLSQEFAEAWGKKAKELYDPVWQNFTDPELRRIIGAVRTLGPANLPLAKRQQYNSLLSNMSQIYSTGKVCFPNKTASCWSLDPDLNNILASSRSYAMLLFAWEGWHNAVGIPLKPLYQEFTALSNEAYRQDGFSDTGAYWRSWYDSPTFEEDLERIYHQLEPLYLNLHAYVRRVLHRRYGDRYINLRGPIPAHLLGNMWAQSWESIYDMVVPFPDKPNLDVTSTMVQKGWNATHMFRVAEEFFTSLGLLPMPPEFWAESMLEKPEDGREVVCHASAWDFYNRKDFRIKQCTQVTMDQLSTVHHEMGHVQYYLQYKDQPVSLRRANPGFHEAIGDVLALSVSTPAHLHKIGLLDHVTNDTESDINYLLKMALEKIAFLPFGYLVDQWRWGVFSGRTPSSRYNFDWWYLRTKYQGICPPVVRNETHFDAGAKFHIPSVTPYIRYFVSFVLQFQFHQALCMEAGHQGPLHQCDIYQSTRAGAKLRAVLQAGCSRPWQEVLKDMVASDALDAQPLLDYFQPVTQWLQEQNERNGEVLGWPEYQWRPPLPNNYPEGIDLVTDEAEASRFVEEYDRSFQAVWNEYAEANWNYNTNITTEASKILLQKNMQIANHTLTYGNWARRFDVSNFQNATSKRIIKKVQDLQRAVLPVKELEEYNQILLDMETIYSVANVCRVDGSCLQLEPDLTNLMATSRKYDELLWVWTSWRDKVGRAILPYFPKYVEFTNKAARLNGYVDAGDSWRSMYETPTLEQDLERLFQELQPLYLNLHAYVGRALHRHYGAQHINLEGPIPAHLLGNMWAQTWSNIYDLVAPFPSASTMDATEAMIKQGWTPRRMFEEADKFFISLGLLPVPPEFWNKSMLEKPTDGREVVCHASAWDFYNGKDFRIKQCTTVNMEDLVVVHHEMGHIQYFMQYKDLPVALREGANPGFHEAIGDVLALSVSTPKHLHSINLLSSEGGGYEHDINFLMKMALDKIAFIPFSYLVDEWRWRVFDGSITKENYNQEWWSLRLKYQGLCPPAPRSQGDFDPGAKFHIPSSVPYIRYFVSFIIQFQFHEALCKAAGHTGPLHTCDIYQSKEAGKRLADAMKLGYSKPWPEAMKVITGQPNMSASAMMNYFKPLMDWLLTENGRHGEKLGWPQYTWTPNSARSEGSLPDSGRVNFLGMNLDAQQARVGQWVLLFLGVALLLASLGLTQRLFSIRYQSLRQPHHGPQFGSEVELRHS

rabbit converting enzyme [2] = molecular target: T1, rabbit converting enzyme; assay: In vitro inhibition of rabbit converting enzyme (Bünning and Shapiro methods); format: biochemical
Description: Doubtless, such drugs intervene in the CEI action mechanism, in that they act by preventing the transformation of angiotensin I to angiotensin II (vasoconstrictor) and the degradation of bradykinins (vasodilators). These CEIs thus cause vasodilation, which is exerted on arteries and on veins. Thus, they are mixed vasodilators. It should be remembered that the mechanism for the formation of the bond that can be formed between the inhibitor and the enzyme normally occurs in two phases, the first consisting of the formation of an inhibitor-enzyme complex by a competitive bond, which involves a reaction governed by a constant K1, and the second, consisting of a slow isomerisation of the inhibitor-enzyme complex, itself also governed by a reversible rate constant for this reaction, k4.
Comparison with captopril and enalaprilat” in Drug Research 1984; 34:1406–1410, and the doctoral thesis by Shapiro R. (Ph.D. Thesis, Harvard University Cambridge, Mass., 1983 “Activation and inactivation of rabbit pulmonary angiotensin converting enzyme”.

treated patients = assay: Visual function in treated patients, enalaprilat used instead of ramipril; format: in vivo, human; conditions: comparison enalaprilat vs ramiprilat
Description: It should be remembered that the physico-chemical indications described above originate from the article by Vasmant et al., loc. cit.

healthy subject = assay: General arterial pressure at doses that improve field of vision; format: in vivo, human; conditions: in vivo
Description: Effective doses for producing effects in the ophtalmologic field are desirably lower than doses that would induce general arterial hypotension in a subject with normal pressure. Clearly, the doses that can be used can be higher in subjects with hypertension, although this is not necessary, since the desired effect is that obtained in the ophtalmologic field.

Row | Structure (SMILES) | Ki (rabbit converting enzyme [1]; unit inferred, read-out: constant Ki) | constant k4 (rabbit converting enzyme [1]; unit not given) | stability of enzyme complex relative to enalaprilat (rabbit converting enzyme [2]; from k4) | Ki relative to enalaprilat (rabbit converting enzyme [2]; printed as 'higher than with enalaprilat') | improvement in visual function in treated patients (treated patients) | effect on arterial pressure of doses that improve field of vision (healthy subject) | constant k4 for the reversible isomerisation of the enzyme-inhibitor complex (rabbit converting enzyme [1]; 50 mM/l Hepes, 300 mmol/l NaCl, 1 micromol/l ZnCl2, pH 7.5) | Ki (rabbit converting enzyme [1]; in vitro, 50 mM/l Hepes, 300 mmol/l NaCl, 1 micromol/l ZnCl2, pH 7.5, read-out: equilibrium inhibition constant K)
1 | C[C@H](N[C@@H](CCc1ccccc1)C(=O)O)C(=O)N1[C@H](C(=O)O)C[C@@H]2CCC[C@@H]21 [ramiprilat] | 0.007 nM | 1.8×10^−5 | six times more stable | 7 times | incomparably better | do not cause arterial hypertension |  | 
2 | C[C@H](N[C@@H](CCc1ccccc1)C(=O)O)C(=O)N1CCC[C@H]1C(=O)O [enalaprilat] |  |  |  |  | moderate improvement |  | 1.1×10^−4 S1 | 0.05 nM
